Test results published in publication PMC3471066, “The Inhibitory Effect of Prunella vulgaris L. on Aldose Reductase and Protein Glycation” (Journal of Biomedicine and Biotechnology, 2012).
Where two headings read alike, the source gives them in different places.

Columns and labels:
[1] = target: T1, human recombinant aldose reductase (rhAR) (Homo sapiens, UniProt P15121); experiment: Kinetics of rhAR inhibition, Lineweaver-Burk plots; type: biochemical; conditions: DL-glyceraldehyde 0.1-1 mM
T1 construct: purchased Wako Pure Chemical Industries (Osaka, Japan)
Protocol: Reaction mixtures consisted of 0.1 M potassium phosphate, 0.16 mM NADPH, 2 mM of recombinant human aldose reductase (rhAR) with varied concentrations of substrate DL-glyceraldehyde and AR inhibitor in a total volume of 200 μL. Concentrations were ranged from 0.1 to 1 mM for DL-glyceraldehyde, and from 0.1 to 1 mM for active compound. Recombinant human aldose reductase activity was assayed spectrophotometrically by measuring the decrease in absorption of NADPH at 340 nm after substrate addition using Bio Tek Power Wave XS spectrophotometer (Bio Tek Instruments, VT, USA).

[2] = target: T2, rat lens aldose reductase (rAR) (Rattus norvegicus, UniProt P07943); experiment: Rat lens aldose reductase (rAR) inhibition, NADPH decrease at 340 nm; type: biochemical
T2 construct: from tissue; host or cells: lens of Sprague-Dawley rats (homogenate supernatant)

ABTS•+ assay = experiment: ABTS•+ assay
Protocol: The method of Re et al. was used with slight modification. The ABTS diammonium salt (2 mM) and potassium persulfate (3.5 mM) were mixed and diluted in distilled water kept in the dark at room temperature for 24 h before use. After addition of ABTS^•+ solution to 10 μL of antioxidant compounds were recorded at after 10 min reaction. The percentage inhibition of absorbance at 750 nm is calculated and potted as a function of concentration of antioxidants. Trolox was used as positive control.

rat erythrocyte = experiment: Blood culture (erythrocyte) and intracellular galactitol measurement; type: cell-based; conditions: for Rat erythrocyte galactitol content: 30 mM galactose, 5 μg/mL compound, 3 h; for inhibition at 5 µg/mL: Rattus norvegicus, Erythrocyte, 5 μg/mL, read-out: inhibition of galactitol accumulation in rat erythrocyte
Protocol: Blood sample was collected in heparin-containing polypropylene tube from 10-week-old male rats. For sugar and sugar alcohol analysis, erythrocytes from heparinized blood were separated from the plasma and buffy coat by centrifuging at 2000×g for 10 min. The cells were washed thrice with normal saline (0.9% NaCl) at 4°C. In the final washing, the cells were centrifuged at 2000 ×g for 10 min to obtain a consistently packed cell preparation. The packed cells (1 mL) were then incubated in a Krebs-Ringer bicarbonate buffer (pH 7.4) containing 30 mM galactose in the presence or absence of samples at 37°C in 5% CO2 for 3 h. The erythrocytes were washed with cold saline by centrifuging at 2000 ×g for 10 min, precipitated by adding 6% of cold perchloric acid (3 mL), and centrifuged again at 2000 ×g for 10 min. The supernatant was neutralized with 2.5 M K2CO3 at 4°C and used for galactitol determination. HPLC analysis for sugar and sugar alcohol in blood was performed with this supernatant of red blood cell homogenate after being benzoylated.

[3] = Effects on AGEs formation (BSA-methylglyoxal, fluorescence); type: biochemical
Protocol: The modified procedure of Lee et al. was followed. Bovine serum albumin (10 mg/mL) was incubated with 5 mM methylglyoxal in sodium phosphate buffer (100 mM; pH 7.4). […] All of the reagent and samples were sterilized by filtration through 0.2 μM membrane filters, and the mixture was incubated at 37°C for 7 days. The fluorescence intensity was measured at an excitation wavelength of 330 nm and an emission wavelength of 410 nm with a LS50B fluorescence spectrometer (Perkin-Elmer Ltd., USA). Aminoguanidine was also tested as a known inhibitor.

[4] = target: T1, human recombinant aldose reductase (rhAR); experiment: Human recombinant aldose reductase (rhAR) inhibition; type: biochemical
rat lenses = experiment: Lens culture and intracellular galactitol measurement; type: cell-based; conditions: for Galactitol content in rat lens: 30 mM galactose, 5 μg/mL compound, 6 d; for inhibition at 5 µg/mL: Rattus norvegicus, 5 μg/mL, read-out: inhibition of galactitol accumulation in rat lenses
Protocol: Lenses isolated from 10-week-old male rats were cultured for 6 d in TC-199 medium that contained 15% fetal bovine serum 100 units/mL penicillin and 0.1 mg/mL streptomycin under sterile conditions in an atmosphere of 5% CO2 and 95% air at 37°C. Samples were dissolved in dimethyl sulfoxide. The lenses were divided into 5 groups and cultured in medium containing 5 mM glucose, 30 mM galactose, and rosmarinic acid or caffeic acid ethylene ester. Each lens was placed in well containing 1.0 mL of medium. Galactitol was determined by HPLC after its derivatization by reaction with benzoic acid to a fluorescent compound [20].

Row | IC50 (ABTS•+ assay) [µM] | IC50 [3] [µM] | Structure (SMILES) | Inhibition (%) of ABTS•+ (ABTS•+ assay; 0.33 μg/mL) [%] | Inhibition (%) of ABTS•+ (ABTS•+ assay; 1.67 μg/mL) [%] | Inhibition (%) of ABTS•+ (ABTS•+ assay; 3.33 μg/mL) [%] | Rat erythrocyte galactitol content (rat erythrocyte) [µM] | inhibition at 5 µg/mL (rat erythrocyte) [%] | Galactitol content in rat lens (rat lenses) | inhibition at 5 µg/mL (rat lenses) [%] | Inhibition (%) of AGEs ([3]; 19.61 μg/mL) [%] | further results
1 | 10.5 ± 0.28 | 33.2 ± 0.54 | C=COC(=O)/C=C/c1ccc(O)c(O)c1 [Compound 5, caffeic acid ethylene ester] | 13.00 ± 0.13 | 50.17 ± 1.75 | 84.68 ± 1.41 | 15.89 ± 0.41 | ~31.7 | 653.76 ± 4.68 μg/lens wet weight (g) | ~22.5 |  | inhibition type of rhAR [1]: noncompetitive inhibition; inhibition type of rhAR ([1]; listed as caffeic acid ethylene ester (5)): noncompetitive; IC50 ([2]; read-out: rAR IC50): 3.2 ± 0.55 µM; Inhibition (%) of AGEs ([3]; 1.96 μg/mL): 9.00 ± 0.43%; Inhibition (%) of AGEs ([3]; 4.9 μg/mL): 33.94 ± 0.94%; Inhibition (%) of AGEs ([3]; 9.8 μg/mL): 74.81 ± 1.41%; IC50 [4]: 12.6 ± 0.32 µM
2 |  |  | O=c1c(O)c(-c2ccc(O)c(O)c2)oc2cc(O)cc(O)c12 [Quercetin, quercetin, reference compound] |  |  |  | 16.15 ± 0.39 | 30.5 | 448.81 ± 3.38 μg/lens wet weight (g) | 46.8 |  | inhibition at 1 µg/mL ([2]; 1 μg/mL): 44.7 ± 1.39%; inhibition at 5 µg/mL ([2]; 5 μg/mL): 64.7 ± 1.56%; inhibition at 10 µg/mL ([2]; 10 μg/mL): 75.33 ± 0.55%
3 | 12.4 ± 0.33 | 304 ± 3.41 | O=Cc1ccc(O)c(O)c1 [Compound 6, protocatechualdehyde] | 13.73 ± 0.37 | 52.73 ± 0.93 | 92.80 ± 1.50 |  |  |  |  | 9.85 ± 0.16 | Inhibition (%) of AGEs ([3]; 49.02 μg/mL): 63.45 ± 1.16%; Inhibition (%) of AGEs ([3]; 98.04 μg/mL): 88.69 ± 0.56%
4 | 15.3 ± 0.4 |  | Cc1c(C)c2c(c(C)c1O)CCC(C)(C(=O)O)O2 (stereo not shown) [Trolox, reference compound] |  | 21.76 ± 1.15 | 45.48 ± 1.20 |  |  |  |  |  | ABTS•+ IC50 (ABTS•+ assay): 3.84 ± 0.10 µg/mL; Inhibition (%) of ABTS•+ (ABTS•+ assay; 16.67 μg/mL): 99.44 ± 0.20%
5 | 12 ± 0.24 |  | O=C(O)/C=C/c1ccc(O)c(O)c1 [Compound 1, caffeic acid] | 11.33 ± 0.31 | 34.65 ± 1.03 | 75.14 ± 1.08 |  |  |  |  | 9.33 ± 0.27 | 

Row | Structure (SMILES) | IC50 (ABTS•+ assay) [µM] | IC50 [3] [µM] | Inhibition (%) of ABTS•+ (ABTS•+ assay; 0.33 μg/mL) [%] | Inhibition (%) of ABTS•+ (ABTS•+ assay; 1.67 μg/mL) [%] | Inhibition (%) of ABTS•+ (ABTS•+ assay; 3.33 μg/mL) [%] | Rat erythrocyte galactitol content (rat erythrocyte) [µM] | inhibition at 5 µg/mL (rat erythrocyte) [%] | Galactitol content in rat lens (rat lenses) | inhibition at 5 µg/mL (rat lenses) [%] | Inhibition (%) of AGEs ([3]; 19.61 μg/mL) [%] | further results
6 | O=C(O)C=Cc1ccc(O)cc1 [Compound 3, p-hydroxycinnamic acid] | 5.94 ± 1.01 |  |  | 47.60 ± 1.35 | 59.65 ± 1.39 |  |  |  |  |  | IC50 ([2]; read-out: rAR IC50): 8.35 ± 0.51 µM; Inhibition (%) of ABTS•+ (ABTS•+ assay; 8.33 μg/mL): 74.05 ± 0.69%
7 | N=C(N)NN [Aminoguanidine, reference compound] |  | 1945 ± 8.39 |  |  |  |  |  |  |  | 3.96 ± 0.06 | AGEs IC50 [3]: 143.92 ± 0.62 µg/mL; Inhibition (%) of AGEs ([3]; 98.04 μg/mL): 37.39 ± 0.52%; Inhibition (%) of AGEs ([3]; 196.08 μg/mL): 66.85 ± 0.13%
8 | O=C(O)c1ccc(O)c(O)c1 [Compound 2, protocatechuic acid] | 11.6 ± 0.22 |  | 14.90 ± 0.34 | 53.79 ± 0.92 | 93.42 ± 0.58 |  |  |  |  |  | 
9 | O=C(/C=C/c1ccc(O)c(O)c1)O[C@H](Cc1ccc(O)c(O)c1)C(=O)O [Compound 4, rosmarinic acid] | 8.79 ± 0.1 |  | 9.93 ± 0.27 | 36.50 ± 0.78 | 78.40 ± 1.17 | 15.05 ± 0.30 | ~35.5 | 532.38 ± 6.56 μg/lens wet weight (g) | ~36.9 | 20.67 ± 0.37 | inhibition type of rhAR [1]: noncompetitive; IC50 ([2]; rAR IC50): 2.77 ± 0.48 µM; IC50 [4]: 18.6 ± 0.4 µM
